US20230295292A1, “METHODS OF TREATING CANCERS AND ENHANCING EFFICACY OF GPRC5DXCD3 BISPECIFIC ANTIBODIES” (Janssen Biotech, Inc., priority 2021, published 2023)

Assays:
T cells = assay: Phase 1b TRIMM-2 study: biomarker / pharmacodynamic assessments (T cells, cytokines); type: in vivo, human
From the text: BM-localized MM cells were identified and analysed for cell surface marker expression levels by staining 1.0×10^6 cells/mL with HuMax-003 (CD38) FITC (this antibody binds to an epitope distinct from the epitope bound by daratumumab, Janssen Pharmaceuticals), CD138 PE, CD56 PC7, CD45 Krome Orange (all Beckman Coulter), CD269 (BCMA) APC (Biolegend), CD274 (PD-L1) BV421 and CD19 APC-H7 (both Becton Dickinson). BM or PB immune cell subsets were identified and analysed for cell surface marker expression levels by staining 1.0×10^6 cells/mL with CD45 Krome Orange, CD56 PC7 (both Beckman Coulter), CD14 APC-H7, CD19 APC-H7, CD3 V450, CD4 APC-H7 or PE, CD8 FITC, CD45-RA APC. CD127 PE.Cy7, CD62L PE, CD274 […] BV421, CD16 APC, HLA-DR APC-H7 (all Becton Dickinson) and CD25 PE (Dako) or with CD4 BUV395 (BD Biosciences), CD8 BUV737 (BD
Biosciences), PD-1 BV421 (BD Biosciences), TIM-3 BV650 (BD Biosciences), CD3 BV711 (BD Biosciences), CD45RO BV786 (BD Biosciences). CD38 Humab-003-FITC (Janssen). CD45RA PerCP-Cy5.5 (BD Biosciences). HLA-DR PE (BD Biosciences), LAG-3 PE-eF610 (ThermoFisher), CD25 PE-Cy7 (BD Biosciences), CCR7 AF647 (BD Biosciences), CD127 APC-eF780 (ThermoFisher). All BM samples were analysed within 24 hours from the time the sample was collected.
Flow cytometry was performed using a 7-laser LSRFORTESSA (Becton Dickinson). Fluorescent labeled beads (CS&T beads, Becton Dickinson) were used daily to monitor the performance of the flow cytometer and verify optical path and stream flow. […] Compensation beads were used to determine spectral overlap, and compensation was automatically calculated using Diva software. Flow cytometry data were analyzed using FACS Diva software.
Cytokines [interferon-gamma (IFN-γ), interleukin (IL)-2, IL-6, IL-8, IL-10, and tumor necrosis factor-alpha (TNF-α)] in the cell culture supernatants were analyzed using V-Plex proinflammatory Panel 1 Human Kit (Meso Scale Diagnostics), according to the manufacturer’s protocol. […]

[1] = Phase 1b TRIMM-2 study: pharmacokinetics (serum concentrations); type: in vivo, human; conditions: in the presence of daratumumab
Protocol: Blood and serum or plasma samples were collected for assessments of pharmacokinetics and immunogenicity (e.g., antibodies to daratumumab, rHuPH20, or talquetamab). Selection of the dose regimen (dose level and frequency) for dose expansion was determined based on the pharmacokinetic and pharmacodynamic information obtained during dose escalation. A sample for the pharmacokinetic and immunogenicity analysis was collected at scheduled time and any time a suspected IRR or CRS event (in case of a CRS event, samples were collected at onset, 24 hours and 72 hours) was observed during the study.
Each serum sample was evenly divided into 3 aliquots (1 for pharmacokinetics and immunogenicity of daratumumab, 1 for pharmacokinetics and immunogenicity of talquetamab, and 1 backup). […] For the pharmacokinetics analysis, serum samples were analyzed to determine concentrations of daratumumab and talquetamab using validated, specific, and sensitive assay methods. Pharmacokinetic parameters include, but are not limited to, area under the curve (AUC)(0-t), AUCtau, Cmax, and Tmax would be calculated if sufficient data were available for estimation. […] For the rHuPH20 immunogenicity assessments, plasma samples were screened for antibodies binding to rHuPH20 and were assessed in confirmatory and titer assays as necessary.

[2] = system: relapsed or refractory multiple myeloma; assay: Phase 1b TRIMM-2 study: best response by IMWG criteria, investigator assessment
Protocol: A phase 1b, open-label, multicenter, multi-cohort study of talquetamab in combination with subcutaneous (SC) dosing regimens of daratumumab administered to adult subjects with multiple myeloma was carried out. Two treatment combinations also included pomalidomide (and concomitant dexamethasone for at least the initial cycles). In the pomalidomide-containing treatment combinations, dexamethasone administration was required through the first 3 full immunomodulatory agent (IMiD)containing cycles to enhance IMiD-driven antimyeloma effects and serve as pretreatment medication for daratumumab and talquetamab. An overall aim of the study was to evaluate the safety of daratumumab in combination with talquetamab with or without pomalidomide (and concomitant dexamethasone at least in the initial cycles), and to evaluate preliminary antitumor activity. Safety was monitored by a Study Evaluation Team (SET).
The treatments were administered in 28-day cycles. Daratumumab was administered to all subjects by SC injection at a dose of 1800 mg as follows: weekly in Cycles 1-2, every 2 weeks (Q2W) in Cycles 3-6, and every 4 weeks thereafter. Note that a recombinant human hyaluronidase PH20 (rHuPH20) was used to decrease the injection volume required, facilitating the SC administration of daratumumab.
Daratumumab SC (Dara) was administered in combination with different dosage levels of talquetamab (Tal), including Dara 1800 mg + Tal 60 µg/kg SC weekly, Dara 1800 mg + Tal 400 µg/kg SC weekly. Dara 1800 mg + Tal 400 µg/kg SC biweekly starting Cycle 3 Day 1 (Tal 400 µg/kg SC weekly in Cycles 1-2), and Dara 1800 mg + Tal 800 µg/kg SC biweekly. Some subjects in the Dara 1800 mg + Tal 400 µg/kg SC weekly cohort switched to Tal 800 µg/kg biweekly SC dosing after Cycle 3 Day 1. Except for the 60 µg/kg talquetamab SC weekly cohort in which step-up dosing began on Cycle 1 Day 9, step-up doses for talquetamab began on Cycle 1 Day 2. When daratumumab and talquetamab were administered on the same day, daratumumab was administered first. Step-up Dose 1 of talquetamab was administered at least 20 hours after SC daratumumab. Subsequent step-up dose(s), if applicable, and first treatment dose of talquetamab were administered approximately 3 hours after SC daratumumab. Subsequent treatment doses of talquetamab was administered approximately 1 hour after SC daratumumab (when both study drugs are administered on the same day).
Disease evaluations would be performed by a central laboratory (additional samples may be collected for analysis by the local laboratory) until disease progression. […] Subjects that meet all other IMWG criteria for CR, and whose positive IFE is confirmed to be daratumumab interference, are considered complete responders. For subjects with light chain multiple myeloma, both serum and urine IFE and serum FLC assay were performed every 4 weeks. Additional serum samples may be utilized to monitor for potential daratumumab interference with the IFE and response adjudicated per IMWG-based response criteria. Quantitative immunoglobulin (QIg, e.g., IgG, IgA, IgM, IgE, and IgD), M-protein by electrophoresis (SPEP), FLC and IFE measurements in serum and urine and serum β-microglobulin were analyzed by the central laboratory. Disease progression based on one of the laboratory tests alone must be confirmed by at least 1 repeat investigation performed 1 to 3 weeks later. Disease evaluations would continue beyond relapse from CR until disease progression was confirmed. Serum and urine IFE and serum FLC assays would be performed at screening and thereafter when a CR or sCR is suspected (when serum or 24-hour urine M-protein electrophoresis [by SPEP or UPEP] are 0 or non-quantifiable). Development of hypercalcemia (corrected serum calcium >11 mg/dL) may indicate disease progression or relapse if it is not attributable to any other cause.

[3] = Tal 400 µg/kg (SC3 and SC6) + 800 µg/kg (SC7 and SC15) with Dara 1800 mg, 56 response evaluable subjects
[4] = Tal Total (all Tal cohorts with Dara, with or without Pom), n=108 evaluable

daratumumab: anti-CD38 monoclonal antibody approved for MM treatment; HC SEQ ID NO: 13, LC SEQ ID NO: 14; given SC with rHuPH20 [reference compound]
Proportion of CD38+/CD8+ T cells (T cells; after initial daratumumab dosing on C1D1): declined

talquetamab
Frequency of CD38+ T cells (T cells; FIG. 4, following talquetamab dosing in the presence of daratumumab 1800 mg): increase
CD38+ CD8+ T cells (T cells; after the initial doses of talquetamab despite concurrent daratumumab dosing): induction
Pharmacokinetic profile of talquetamab [1]: consistent with the profile of observed in the phase 1 talquetamab monotherapy
CR or better (sCR + CR) ([2]; Overall Total, n=186 evaluable): 46 (24.7%)
Clinical benefit (Overall response + MR) ([2]; Overall Total, n=186 evaluable): 146 (78.5%)
Complete response (CR) ([2]; Overall Total, n=186 evaluable): 28 (15.1%)
Minimal response (MR) ([2]; Overall Total, n=186 evaluable): 0
Not evaluable (NE) ([2]; Overall Total, n=186 evaluable): 1 (1.2%)
Overall response (sCR+CR+VGPR+PR) ([2]; Overall Total, n=186 evaluable): 146 (78.5%)
Partial response (PR) ([2]; Overall Total, n=186 evaluable): 22 (11.8%)
Progressive disease (PD) ([2]; Overall Total, n=186 evaluable): 11 (5.9%)
Stringent complete response (sCR) ([2]; Overall Total, n=186 evaluable): 18 (9.7%)
VGPR or better (sCR + CR + VGPR) ([2]; Overall Total, n=186 evaluable): 124 (66.7%)
Very good partial response (VGPR) ([2]; Overall Total, n=186 evaluable): 78 (41.9%)
Very good partial response (VGPR), Unconfirmed ([2]; Overall Total, n=186 evaluable): 11
CR or better (sCR + CR) [2, 3]: 16 (28.6%)
Clinical benefit (Overall response + MR) [2, 3]: 45 (80.4%)
Complete response (CR) [2, 3]: 9 (16.1%)
Complete response (CR), Unconfirmed [2, 3]: 3
Minimal response (MR) [2, 3]: 0
Not evaluable (NE) [2, 3]: 0
Overall response (sCR+CR+VGPR+PR) [2, 3]: 45 (80.4%)
Partial response (PR) [2, 3]: 9 (16.1%)
Partial response (PR), Unconfirmed [2, 3]: 4
Progressive disease (PD) [2, 3]: 3 (5.4%)
Stringent complete response (sCR) [2, 3]: 7 (12.5%)
Stringent complete response (sCR), Unconfirmed [2, 3]: 0
VGPR or better (sCR + CR + VGPR) [2, 3]: 36 (64.3%)
Very good partial response (VGPR) [2, 3]: 20 (35.7%)
Very good partial response (VGPR), Unconfirmed [2, 3]: 5
CR or better (sCR + CR) [2, 4]: 28 (25.9%)
Clinical benefit (Overall response + MR) [2, 4]: 89 (82.4%)
Complete response (CR) [2, 4]: 14 (13.0%)
Minimal response (MR) [2, 4]: 0
Not evaluable (NE) [2, 4]: 0
Overall response (sCR+CR+VGPR+PR) [2, 4]: 89 (82.4%)
Partial response (PR) [2, 4]: 18 (16.7%)
Progressive disease (PD) [2, 4]: 4 (3.7%)
Stringent complete response (sCR) [2, 4]: 14 (13.0%)
VGPR or better (sCR + CR + VGPR) [2, 4]: 71 (65.7%)
Very good partial response (VGPR) [2, 4]: 43 (39.8%)
Very good partial response (VGPR), Unconfirmed [2, 4]: 13
